1 molecule from paper PMC11881906, “Development of xanthone derivatives as effective broad-spectrum antimicrobials: Disrupting cell wall and inhibiting DNA synthesis” (Science Advances, 2025) can be followed below.

In one data set the test system is P. aeruginosa ATCC 9027. The data set can be described thus: Serial passage resistance induction. The following applies: 20-day passages at 0.5× MIC. The data set is classed as cell-based, Pseudomonas aeruginosa. As to the method:
The bacteria were grown in a medium containing 0.5× MIC of each compound to prepare the bacterial suspension for the next MIC determination. The MICs were then recorded after incubation at 37°C for 24 hours. Daily passages were continued until the initial MIC increased by more than fourfold. The stability of acquired resistance was investigated by MIC determination and repeated for 20 days.

Data set [1] deals with LTA. Description: Fluorescence-based binding assay. The note with it: compound 1× MIC; LTA 0 to 2.5 μg/ml. Here is the method: Changes in the fluorescence emission spectrum or intensity were assessed for compound XT17 with and without the presence of targeted proteins. The fluorescent properties of compound XT17 (excitation wavelength of 350 nm and emission wavelength of 440 nm) were measured using a fluorescent plate reader upon binding to the targets. LTA-targeted protein concentrations ranged from 0.2 to 6.25 μg/ml, while LPS concentrations ranged from 0.78 to 25 μg/ml. The changes in the emission from a constant concentration of fluorescent compound were monitored after adding increasing concentrations of LTA or LPS. All measurements were repeated three times with duplicates each time.

A further data set concerns S. aureus ATCC 29213. Description: DiSC3(5) membrane depolarization assay. It counts as cell-based, Staphylococcus aureus. The note with it: 1× to 8× MIC. Here is the method: The DiSC3(5) assay was carried out to investigate the cytoplasmic membrane depolarization. Mid-log phase bacteria culture was centrifuged and resuspended in sterile Hepes buffer [5 mM (pH 7.4)] to adjust the concentration of bacterial cells to obtain OD600 of 0.1. The bacterial suspension was then incubated with 2 μM DiSC3(5) for 1 hour without being exposed to the light. The change in fluorescence intensity was monitored by a BioTek multidetector microplate reader with an excitation wavelength of 622 nm and an emission wavelength of 670 nm. […] All measurements were repeated three times with duplicates each time.

A further data set deals with rabbit erythrocytes. The data set can be described thus: Hemolysis assay. The data set is classed as cell-based. The note with it: concentration causing 50% hemolysis of red blood cells; 1 hour, 37°C. Put shortly: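 Washed rabbit erythrocytes, 8% (v/v) in PBS pH 7.4, incubated 1 h at 37 °C with twofold-diluted compounds (DMSO <0.5%). Haemoglobin release read at 576 nm in supernatant; % hemolysis normalised between PBS (0%) and 0.2% Triton X-100 (100%), three repeats in duplicate.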

In another data set the test system is E. coli ATCC 25922. Description: SYTOX Green uptake assay. The note with it: up to 8× MIC. The data set is classed as cell-based, Escherichia coli. Here is the method: The SYTOX Green uptake was measured to explore the inner membrane permeability. The overnight bacteria culture was centrifuged and resuspended in sterile PBS to obtain an OD600 of 0.2. SYTOX Green dye was added to a final concentration of 0.3 μM and incubated for 20 min without being exposed to the light. Fluorescence was measured at excitation and emission wavelengths of 504 and 523 nm, respectively. […] The changes in fluorescence intensity were continuously monitored for 1 hour. All measurements were repeated three times with duplicates each time.

In a further data set the test system is Gram-negative bacteria. The data set can be described thus: MIC, Gram-negative strains. The data set is classed as cell-based. The following applies: read-out: MICs against Gram-negative bacteria. As to the method: MIC was determined using the broth microdilution method in accordance with Clinical and Laboratory Standards Institute guidelines. All compounds were dissolved in dimethyl sulfoxide (DMSO; final DMSO concentration of less than 0.5%) and sterile double-distilled water and then diluted with Mueller-Hinton broth (MHB). Each compound’s stock solution was serially twofold diluted, resulting in concentrations ranging from 0.39 to 100 μg/ml, and thereafter added to sterile 96-well plates. All bacterial cell suspensions were adjusted in MHB to attain a starting inoculum of 1 × 10^6 cells/ml. A total of 100 μl volume of the bacterial suspension was then added to each well. Following a 24-hour incubation at 37°C, the optical density at 600 nm (OD600) was confirmed by measuring absorbance at 600 nm with a BioTek microplate reader. […] All measurements were repeated three times with duplicates each time.

A further data set has as its system LPS. The data set can be described thus: BODIPY-TR-cadaverine displacement assay. It counts as binding. As to the method: (§1) The percentage of displacement from LTA-BODIPY/LPS-BODIPY by test compounds was determined according to BODIPY cadaverine displacement assay. […] The mixture was incubated in the dark for 30 min, and then the fluorescence was monitored at an excitation wavelength of 580 nm and an emission wavelength of 620 nm using a BioTek multidetector microplate reader. The percentage of displacement from LTA-BODIPY/LPS-BODIPY was calculated by the following formula: % Displacement = (FS − Fmin)/(Fmax − Fmin) × 100. Where FS is the fluorescence intensity observed at a given test compound concentration, Fmin is the fluorescence intensity of BODIPY with LTA/LPS and DMSO, and Fmax is the fluorescence intensity of BODIPY with only DMSO. All tests were carried out at least twice and with biological replicates.

The subject of data set [2] is LTA. Description: BODIPY-TR-cadaverine displacement assay. It counts as binding. Here is the method: as §1
The next data set concerns E. coli DNA. Description: Electrophoretic mobility shift assay. It counts as binding, Escherichia coli. The note with it: 8× MIC. As to the method: Isolation of DNA from pure culture of E. coli ATCC 25922 was carried out by the TIANamp bacterial DNA kit (TIANGEN, China) according to the manufacturer’s instructions. […] A loading buffer containing 10 mM TE (pH 7.5), 0.03% bromophenol blue, 0.03% xylene cyanol FF, 60% glycerol, and 60 mM EDTA was added in the sample following incubation for 30 min at 37°C. The electrophoresis was then performed at 100 V for 2 hours in 1× tris-acetate-EDTA buffer solution [0.04 M tris-acetate (pH 8.0) and 0.001 M EDTA] using a 1% (w/v) agarose gel. The bands were visualized using the ChemiDoc imaging system with ultraviolet light. All of the experiments were repeated at least twice with duplicates each time.

Structures are written as SMILES. In brackets after ≈: the same amount, converted by molar mass.

What is called HC50 is the concentration that lyses half of the red blood cells.

For the molecule `CC(C)=CCOc1cc(OCCCNC(=N)N)cc2oc3cc(OCCCNC(=N)N)ccc3c(=O)c12` [XT17], the “increase in MIC values during passages” value in the data set with P. aeruginosa ATCC 9027 is “no more than fourfold increase”. The “fluorescence emission of compound upon binding to LTA” value in the data set with LTA [1] is listed as “decreased in a concentration-dependent manner”. In the data set on S. aureus ATCC 29213, the “DiSC3(5) fluorescence intensity (membrane depolarization)” value is “no changes in fluorescence intensity”. Also, the HC50 with rabbit erythrocytes is >200 µg/mL. Also, the “SYTOX Green fluorescence intensity (cytoplasmic membrane permeabilization)” value in the data set on E. coli ATCC 25922 was “did not show a notable increase”. Also, in the data set with Gram-negative bacteria, the MIC was found to be 3.12 µg/mL (≈ 6.12 µM). In addition, the “% Displacement from LPS” value in the data set on LPS (1× MIC) came to 39.22%; in the data set on LPS (2× MIC), 52.67%; in the data set with LPS (4× MIC), 69.53%; with LPS (8× MIC), 75.50%. The “% Displacement from LTA” value is on record as 2.86% in the data set with LTA [2] (1× MIC), 14.81% in the data set on LTA [2] (2× MIC), 17.88% in the data set with LTA [2] (4× MIC) and 32.95% in the data set on LTA [2] (8× MIC). Besides, the “interaction with E. coli DNA (gel mobility shift)” value in the data set on E. coli DNA was “able to directly interact with the E. coli DNA”.
